The record followed here is patent US10947242B2, “[1,2,4]triazolo[1,5and#8208;A]pyrimidine compounds as PDE2 inhibitors” (Janssen Pharmaceutica NV, priority 2016, dated 2021).

Assay [1] deals with T1, Human recombinant PDE10A (hPDE10A) (Homo sapiens, UniProt Q9Y233).
T1 construct: His tag (inferred from metal chelate purification); made in house; host or cells: Sf9 insect cells (baculovirus)
The assay is described as follows: In vitro assay PDE10A, human clone (SPA, 3H-cAMP hydrolysis). It is filed as biochemical. An outline of the steps: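 Hydrolysis of 3H-cAMP (60 nM cAMP, 0.008 μCi tracer) proceeded for 60 min at room temperature, with the product detected by SPA bead scintillation counting. The enzyme was hPDE10A from baculovirus-infected Sf9 cells in Tris pH 7.8 buffer with MgCl2 and EGTA, and compounds were at 1% DMSO final. Blanks lacked enzyme.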

The next assay addresses T2, PDE2A (Rattus norvegicus, UniProt Q01062).
T2 construct: Twenty μm-thick striatal sections were cut; from tissue; host or cells: rat brain, striatal sections
T2 sequence (Q01062 1-928): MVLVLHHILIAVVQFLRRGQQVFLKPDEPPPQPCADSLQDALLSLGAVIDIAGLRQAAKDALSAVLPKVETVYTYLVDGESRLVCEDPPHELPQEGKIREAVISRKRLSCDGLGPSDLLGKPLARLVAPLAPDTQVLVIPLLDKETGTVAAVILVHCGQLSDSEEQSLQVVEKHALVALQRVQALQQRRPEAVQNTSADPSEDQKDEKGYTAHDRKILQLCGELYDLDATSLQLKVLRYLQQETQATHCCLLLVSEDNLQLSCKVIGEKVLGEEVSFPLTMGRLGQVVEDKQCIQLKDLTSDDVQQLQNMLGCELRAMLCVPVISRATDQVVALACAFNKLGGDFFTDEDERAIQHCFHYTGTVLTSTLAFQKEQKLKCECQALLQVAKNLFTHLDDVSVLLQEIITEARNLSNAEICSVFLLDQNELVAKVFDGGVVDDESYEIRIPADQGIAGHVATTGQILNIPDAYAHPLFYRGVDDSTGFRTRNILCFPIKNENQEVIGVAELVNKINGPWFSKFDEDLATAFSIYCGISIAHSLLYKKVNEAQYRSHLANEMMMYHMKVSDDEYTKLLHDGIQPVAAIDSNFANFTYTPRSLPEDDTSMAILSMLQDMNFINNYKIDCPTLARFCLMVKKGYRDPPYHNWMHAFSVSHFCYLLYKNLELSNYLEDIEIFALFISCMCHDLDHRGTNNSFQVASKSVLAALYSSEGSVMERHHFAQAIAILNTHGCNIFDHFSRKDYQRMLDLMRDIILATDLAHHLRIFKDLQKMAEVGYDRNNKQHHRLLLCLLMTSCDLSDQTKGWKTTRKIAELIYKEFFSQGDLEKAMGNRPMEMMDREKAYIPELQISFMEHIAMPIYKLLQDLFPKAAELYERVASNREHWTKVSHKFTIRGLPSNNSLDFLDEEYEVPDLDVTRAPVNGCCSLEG
The assay is described as follows: PDE2 occupancy by test compounds, ex-vivo autoradiography with [3H]B-17a. It is filed as in vivo, Male Wistar rats. Particulars: 10 mg/kg, percentage receptor occupancy, ex-vivo autoradiography, striatum.

For assay [2], the target named is T3, Human recombinant PDE3A (hPDE3A) (Homo sapiens, UniProt Q14432).
T3 construct: purchased Scottish Biomedical; host or cells: Sf9 insect cells
Description: In vitro assay PDE3A (SPA, 3H-cAMP hydrolysis).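 For all read-outs here: the method names PDE3A and the table heading PDE3B.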 It counts as biochemical. Particulars: for IC50: hPDE3B pIC50, read-out: pIC50 (converted); for Emax: read-out: hPDE3B Emax, read-out: Emax. The method in brief: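 Radiometric SPA measuring [3H]-cAMP hydrolysis (0.4 μM cAMP, 2.4 μCi/ml) over 60 min at room temperature, in Tris pH 7.8 buffer with MgCl2 and EGTA, 1% DMSO. Enzyme: recombinant human brain PDE3A expressed in Sf9 cells, used as partially purified lysate. Counts compared with enzyme-free blanks and vehicle controls.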

Assay [3] deals with T4, Human recombinant PDE2A (hPDE2A) (Homo sapiens, UniProt O00408).
T4 construct: His tag (inferred from metal chelate purification); made in house; host or cells: Sf9 insect cells (baculovirus)
Description: In vitro assay PDE2A (SPA, 3H-cGMP hydrolysis). Particulars: for Emax: read-out: hPDE2A Emax. It is filed as biochemical.

Setting [4] is: human clone by default (no (r) mark), read-out: hPDE10A2 or rPDE10A2 Emax.
Setting [5] is: human clone by default (no (r) mark), read-out: hPDE10A2 or rPDE10A2 pIC50 (converted).
[6] abbreviates: read-out: hPDE2A pIC50 (converted).
The mark [7] stands for this setting: human clone (h), default, read-out: hPDE10A2 Emax.
The mark [8] stands for this setting: human clone (h), default, read-out: hPDE10A2 pIC50 (converted).
Where [9] appears, read: human recombinant PDE2A, 10 μM cGMP substrate, read-out: hPDE2A pIC50 (converted).

Read-outs that look alike come from different tables or passages of the source.

T3 sequence (Q14432 whole entry): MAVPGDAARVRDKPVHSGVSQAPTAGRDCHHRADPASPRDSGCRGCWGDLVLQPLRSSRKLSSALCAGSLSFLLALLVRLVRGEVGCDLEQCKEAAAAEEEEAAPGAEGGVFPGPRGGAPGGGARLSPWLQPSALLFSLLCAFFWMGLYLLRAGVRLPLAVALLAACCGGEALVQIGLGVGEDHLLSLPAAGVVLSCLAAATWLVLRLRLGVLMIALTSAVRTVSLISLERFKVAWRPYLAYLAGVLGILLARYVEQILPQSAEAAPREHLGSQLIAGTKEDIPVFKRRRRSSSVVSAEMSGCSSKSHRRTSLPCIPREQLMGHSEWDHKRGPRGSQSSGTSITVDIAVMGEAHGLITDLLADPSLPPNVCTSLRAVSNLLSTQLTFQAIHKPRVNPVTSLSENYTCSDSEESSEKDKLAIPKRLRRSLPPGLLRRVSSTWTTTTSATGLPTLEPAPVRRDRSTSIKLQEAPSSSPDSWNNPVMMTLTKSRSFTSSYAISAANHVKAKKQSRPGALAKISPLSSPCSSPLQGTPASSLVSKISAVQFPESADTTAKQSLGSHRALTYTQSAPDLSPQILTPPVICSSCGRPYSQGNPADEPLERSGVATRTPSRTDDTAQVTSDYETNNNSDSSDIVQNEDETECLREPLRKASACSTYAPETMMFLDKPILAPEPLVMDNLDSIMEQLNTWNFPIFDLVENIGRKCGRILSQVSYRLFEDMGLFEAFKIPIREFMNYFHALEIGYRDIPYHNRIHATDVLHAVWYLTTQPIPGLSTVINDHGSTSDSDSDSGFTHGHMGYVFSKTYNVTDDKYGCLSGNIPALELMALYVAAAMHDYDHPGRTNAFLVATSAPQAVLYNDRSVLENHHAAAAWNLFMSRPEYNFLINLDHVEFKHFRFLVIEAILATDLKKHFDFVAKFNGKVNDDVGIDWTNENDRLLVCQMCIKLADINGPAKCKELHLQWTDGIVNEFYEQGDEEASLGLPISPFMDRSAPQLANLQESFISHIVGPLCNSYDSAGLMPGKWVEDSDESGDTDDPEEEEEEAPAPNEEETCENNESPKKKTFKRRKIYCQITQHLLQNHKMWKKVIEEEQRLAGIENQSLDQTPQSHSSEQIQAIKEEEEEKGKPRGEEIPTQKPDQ
T1 sequence (Q9Y233 267-1055): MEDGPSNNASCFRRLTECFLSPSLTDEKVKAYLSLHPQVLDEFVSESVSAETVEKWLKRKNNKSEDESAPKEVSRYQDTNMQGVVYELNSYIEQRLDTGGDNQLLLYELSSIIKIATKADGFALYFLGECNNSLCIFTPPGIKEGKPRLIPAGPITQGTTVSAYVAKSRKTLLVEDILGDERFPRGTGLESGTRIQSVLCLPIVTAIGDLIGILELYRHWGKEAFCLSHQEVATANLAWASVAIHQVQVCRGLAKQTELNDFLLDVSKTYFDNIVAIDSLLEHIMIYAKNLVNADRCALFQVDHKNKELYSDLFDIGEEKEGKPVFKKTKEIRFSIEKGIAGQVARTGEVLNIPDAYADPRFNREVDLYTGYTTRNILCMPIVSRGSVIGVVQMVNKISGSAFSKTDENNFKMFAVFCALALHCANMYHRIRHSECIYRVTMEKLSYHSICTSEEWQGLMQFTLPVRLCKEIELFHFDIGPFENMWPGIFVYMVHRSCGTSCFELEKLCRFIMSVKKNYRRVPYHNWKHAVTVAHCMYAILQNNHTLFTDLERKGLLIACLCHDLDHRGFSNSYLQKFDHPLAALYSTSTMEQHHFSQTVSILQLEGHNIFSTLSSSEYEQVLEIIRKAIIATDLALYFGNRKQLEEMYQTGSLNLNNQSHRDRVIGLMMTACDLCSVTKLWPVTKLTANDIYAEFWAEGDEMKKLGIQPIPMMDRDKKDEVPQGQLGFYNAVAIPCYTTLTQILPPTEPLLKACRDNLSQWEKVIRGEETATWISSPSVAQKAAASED
T4 sequence (O00408 whole entry): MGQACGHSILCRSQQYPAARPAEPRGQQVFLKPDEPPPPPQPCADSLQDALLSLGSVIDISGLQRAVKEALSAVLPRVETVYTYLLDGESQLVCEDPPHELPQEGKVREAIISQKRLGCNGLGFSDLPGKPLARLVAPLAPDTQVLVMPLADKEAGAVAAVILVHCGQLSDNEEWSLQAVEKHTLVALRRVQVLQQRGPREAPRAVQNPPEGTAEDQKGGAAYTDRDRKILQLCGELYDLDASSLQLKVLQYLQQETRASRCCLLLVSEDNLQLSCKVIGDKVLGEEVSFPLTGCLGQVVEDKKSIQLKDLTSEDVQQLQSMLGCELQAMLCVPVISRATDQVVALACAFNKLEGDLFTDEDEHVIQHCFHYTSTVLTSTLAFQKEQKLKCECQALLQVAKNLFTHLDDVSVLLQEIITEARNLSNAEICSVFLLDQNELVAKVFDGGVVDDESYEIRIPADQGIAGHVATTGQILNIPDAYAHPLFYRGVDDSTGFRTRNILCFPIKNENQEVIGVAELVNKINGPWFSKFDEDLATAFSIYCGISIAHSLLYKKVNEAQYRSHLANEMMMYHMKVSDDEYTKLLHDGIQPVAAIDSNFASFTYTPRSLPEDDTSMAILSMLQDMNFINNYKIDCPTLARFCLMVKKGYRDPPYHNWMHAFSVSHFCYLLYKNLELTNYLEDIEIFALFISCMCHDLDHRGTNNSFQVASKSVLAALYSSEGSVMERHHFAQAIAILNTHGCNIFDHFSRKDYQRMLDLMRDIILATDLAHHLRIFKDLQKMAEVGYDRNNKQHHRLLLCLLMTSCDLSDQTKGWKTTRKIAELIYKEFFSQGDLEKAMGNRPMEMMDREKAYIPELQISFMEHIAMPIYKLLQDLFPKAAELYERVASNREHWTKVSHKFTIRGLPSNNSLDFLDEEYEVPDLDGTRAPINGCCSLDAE

Turning to `Cn1cc(C(=O)N2[C@H]3CC[C@H](c4cc(C(F)F)nc5ncnn45)[C@@H]2CC3)c2ccccc21` [Compound 297], the Emax in assay [1] (setting [4]) came out at 96%; in assay [2], 62%; in assay [3], 97%. Also, the IC50 is 589 nM in assay [1] (setting [5]), 5890 nM in assay [2] and 2.34 nM in assay [3] (setting [6]). Further, the receptor occupancy at 10 mg/kg on PDE2A (route PO (oral)) was -2%.

Consider `COc1ncc(C(=O)N2CC[C@@H](C)[C@H](c3cc(C(F)F)nc4ncnn34)C2)cc1Cl` [Compound 134], for which the Emax in assay [1] (setting [7]) amounted to 100%; in assay [2], 84%; in assay [3] (human recombinant PDE2A), 101%; in assay [3] it was 101%. Besides, the IC50 was 158 nM in assay [1] (setting [8]), 2240 nM in assay [2], 3.16 nM in assay [3] (setting [9]) and 3.16 nM in assay [3] (setting [6]). Moreover, at PDE2A (po, route PO (oral)), the receptor occupancy at 10 mg/kg turned out to be 21%.

`Cc1nccc(C(=O)N2CC[C@@H](C)[C@H](c3cc(C(F)F)nc4ncnn34)C2)c1F` [Compound 68]: the Emax in assay [1] (setting [7]) is 85%; in assay [2], 50%; in assay [3] (human recombinant PDE2A) it was 99%; in assay [3] it was 99%. Moreover, the IC50 is 1380 nM in assay [1] (setting [8]), 6.31 nM in assay [3] (setting [9]) and 6.31 nM in assay [3] (setting [6]). In addition, the receptor occupancy at 10 mg/kg at PDE2A (sc, route SC (subcutaneous)) stood at 31%.

On to `COc1cc(C(=O)N2CC[C@@H](C)[C@H](c3cc(C)nc4ncnn34)C2)c(C(F)(F)F)cn1` [Compound 37], for which the maximum response (Emax) in assay [1] (setting [7]) is 93%; in assay [2], 52%; in assay [3], 100%. The IC50 was 427 nM in assay [1] (setting [8]), 8910 nM in assay [2] and 17.4 nM in assay [3] (setting [6]). Moreover, the receptor occupancy at 10 mg/kg on PDE2A (po, route PO (oral)) was -13%.

For `O=C(c1ccc2ncc(F)cc2c1)N1[C@H]2CC[C@H](c3cc(C(F)F)nc4ncnn34)[C@@H]1CC2` [Compound 312], the maximal effect (Emax) in assay [1] (setting [4]) turned out to be 93%; in assay [2] it was 37%; in assay [3] it was 99%. Besides, the results for the IC50 in assay [1] (setting [5]), in assay [2] and in assay [3] (setting [6]) were 617 nM, more than 10000 nM and 21.9 nM, respectively. On PDE2A (route PO (oral)), the receptor occupancy at 10 mg/kg is -16%.

On to `Cc1cc(C(=O)N2CC[C@@H](C)[C@](F)(c3cc(C(F)F)nc4ncnn34)C2)cc(C2CC2)n1` [Compound 24b], for which, in assay [1] (human clone (h), default), the “hPDE10A2 Emax” value came out at 60 and the “hPDE10A2 pIC50” value was 5.13. In addition, the “PDE2 Occupancy at 10 mg/kg” value on PDE2A (route SC (subcutaneous)) was 0. For the same compound, the “hPDE3B Emax” value in assay [2] is recorded as 28. Also, in assay [3], the “hPDE2A Emax” value came to 98 and the “hPDE2A pIC50” value is listed as 8.19. Moreover, the “hPDE2A Emax” value in assay [3] (human recombinant PDE2A) turned out to be 98. The “hPDE2A pIC50” value in assay [3] (human recombinant PDE2A, 10 μM cGMP substrate) is given as 8.19.

`Cc1cc(C(=O)N2CC[C@@H](C)[C@H](c3cc(C(F)F)nc4ncnn34)C2)cc(C)c1F` [Compound 115]: the Emax in assay [1] (setting [7]) stood at 99%; in assay [2], 87%; in assay [3], 100%. Besides, the IC50 in assay [1] (setting [8]) was 77.6 nM; in assay [2] it was 1950 nM; in assay [3] (hPDE2A pIC50) it was 1.05 nM; in assay [3] (hPDE2A pIC50, human recombinant PDE2A, 10 μM cGMP substrate), 1.05 nM. Also, on PDE2A (po, route PO (oral)), the receptor occupancy at 10 mg/kg amounted to 23%.

On to `O=C(c1ccc2ncccc2c1)N1[C@H]2CC[C@H](c3cc(C(F)F)nc4ncnn34)[C@@H]1CC2` [Compound 311], for which the Emax amounted to 96% in assay [1] (setting [4]), 62% in assay [2] and 96% in assay [3]. The IC50 was 427 nM in assay [1] (setting [5]), 7410 nM in assay [2] and 1.1 nM in assay [3] (setting [6]). Also, the receptor occupancy at 10 mg/kg at PDE2A (route PO (oral)) is -1%.

With `COc1cc(C(=O)N2CC[C@@H](C)[C@H](c3cc(C(F)F)nc4ncnn34)C2)nc2ccccc12` [Compound 125], the Emax is 96% in assay [1] (setting [7]), 96% in assay [2], 100% in assay [3] (human recombinant PDE2A) and 100% in assay [3]. The IC50 in assay [1] (setting [8]) is 589 nM; in assay [2], 589 nM; in assay [3] (setting [9]), 2.09 nM; in assay [3] (setting [6]) it was 2.09 nM. Further, the receptor occupancy at 10 mg/kg at PDE2A (po, route PO (oral)) was -16%.

As usually defined, the Emax is the maximal effect, on the per cent scale that the assay sets.
